How the values were obtained:
Lck enzyme = Lck enzyme (Homo sapiens (Human), UniProt P06239); experiment: Lck enzyme activity, IMAP fluorescence polarization assay; conditions: 60 min pre-incubation, 6 μM ATP, bin bounds in μM
Btk enzyme (His-Btk) = Btk enzyme (His-Btk) (Homo sapiens (Human), UniProt Q06187); experiment: Btk enzyme activity, IMAP fluorescence polarization assay; conditions: 60 min pre-incubation, 5 μM ATP
Btk enzyme (His-Btk), sequence (Q06187 whole entry): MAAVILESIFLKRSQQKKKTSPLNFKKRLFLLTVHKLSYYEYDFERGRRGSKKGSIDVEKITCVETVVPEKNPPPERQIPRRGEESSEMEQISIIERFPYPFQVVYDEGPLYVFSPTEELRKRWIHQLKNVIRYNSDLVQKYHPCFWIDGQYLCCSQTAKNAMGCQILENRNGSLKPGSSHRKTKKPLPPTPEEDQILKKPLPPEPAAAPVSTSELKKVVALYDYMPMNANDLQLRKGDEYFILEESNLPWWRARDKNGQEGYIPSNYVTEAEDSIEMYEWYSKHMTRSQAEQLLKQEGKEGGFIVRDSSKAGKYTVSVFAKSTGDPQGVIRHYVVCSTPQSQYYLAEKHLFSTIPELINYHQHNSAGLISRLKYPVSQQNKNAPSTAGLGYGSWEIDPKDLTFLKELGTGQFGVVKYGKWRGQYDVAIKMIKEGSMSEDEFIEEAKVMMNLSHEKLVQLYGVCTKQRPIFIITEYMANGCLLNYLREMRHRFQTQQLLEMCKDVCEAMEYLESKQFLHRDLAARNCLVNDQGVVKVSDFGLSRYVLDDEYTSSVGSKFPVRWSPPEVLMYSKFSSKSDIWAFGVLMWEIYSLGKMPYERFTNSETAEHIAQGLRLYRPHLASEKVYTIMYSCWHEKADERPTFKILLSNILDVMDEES

Lck enzyme, sequence (P06239 whole entry): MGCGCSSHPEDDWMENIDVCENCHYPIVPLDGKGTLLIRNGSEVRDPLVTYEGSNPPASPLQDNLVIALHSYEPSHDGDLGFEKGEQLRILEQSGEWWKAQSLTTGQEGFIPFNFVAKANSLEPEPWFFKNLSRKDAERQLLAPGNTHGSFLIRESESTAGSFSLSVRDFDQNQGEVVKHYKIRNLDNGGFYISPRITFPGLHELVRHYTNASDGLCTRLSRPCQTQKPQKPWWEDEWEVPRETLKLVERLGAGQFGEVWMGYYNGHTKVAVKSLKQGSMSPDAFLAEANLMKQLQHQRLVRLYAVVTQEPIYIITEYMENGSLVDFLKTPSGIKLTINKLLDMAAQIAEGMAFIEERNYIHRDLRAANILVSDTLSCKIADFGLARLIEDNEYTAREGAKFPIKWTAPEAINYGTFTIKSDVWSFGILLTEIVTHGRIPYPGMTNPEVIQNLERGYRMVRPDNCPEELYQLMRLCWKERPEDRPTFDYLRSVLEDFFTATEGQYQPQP

Structure (SMILES) | EC50 Btk activity values (Btk enzyme (His-Btk); bin bounds in nM) [nM] | further results
C=CC(=O)N1CCC[C@H]1c1nc(-c2ccc(C(=O)Nc3cc(C(F)(F)F)ccn3)cc2)c2c(N)nccn12 [Example 62, (S)-4-(3-(1-acryloylpyrrolidin-2-yl)-8-aminoimidazo[1,5-a]pyrazin-1-yl)-N-(4-(trifluoromethyl)pyridin-2-yl)benzamide] |  | EC50 Lck activity values (Lck enzyme): <1 µM
CC#CC(=O)N1CCCC[C@H]1c1nc(-c2ccc(C(=O)Nc3cc(CCC)ccn3)cc2)c2c(N)nccn12 [Example 64, (S)-4-(8-amino-3-(1-but-2-ynoylpiperidin-2-yl)imidazo[1,5-a]pyrazin-1-yl)-N-(4-propylpyridin-2-yl)benzamide] |  | EC50 Lck activity values (Lck enzyme): <1 µM
CCCc1ccnc(NC(=O)c2ccc(-c3nc([C@H](C)N(C)C(=O)/C=C/CN(C)C)n4ccnc(N)c34)cc2)c1 [Example 76, (S,E)-4-(8-amino-3-(1-(4-(dimethylamino)-N-methylbut-2-enamido)ethyl)imidazo[1,5-a]pyrazin-1-yl)-N-(4-propylpyridin-2-yl)benzamide] |  | EC50 Lck activity values (Lck enzyme): <1 µM
COc1cc(-c2nc([C@@H]3CCCN3C(=O)c3ccnc(Cl)n3)n3ccnc(N)c23)ccc1C(=O)Nc1ccccn1 [Example 83, (S)-4-(8-amino-3-(1-(2-chloropyrimidine-4-carbonyl)pyrrolidin-2-yl)imidazo[1,5-a]pyrazin-1-yl)-2-methoxy-N-(pyridin-2-yl)benzamide] | <100 | 
Nc1nccn2c([C@@H]3CCCN3C(=O)c3ccnc(Cl)n3)nc(-c3ccc(C(=O)Nc4ccccn4)c(F)c3)c12 [Example 84, (S)-4-(8-amino-3-(1-(2-chloropyrimidine-4-carbonyl)pyrrolidin-2-yl)imidazo[1,5-a]pyrazin-1-yl)-2-fluoro-N-(pyridin-2-yl)benzamide] | <100 | 
COC/C=C/C(=O)N1CCCC[C@H]1c1nc(-c2ccc(C(=O)Nc3ccccn3)cc2C)c2c(N)nccn12 [Example 85, 4-(8-amino-3-((S)-1-((E)-4-methoxybut-2-enoyl)piperidin-2-yl)imidazo[1,5-a]pyrazin-1-yl)-3-methyl-N-(pyridin-2-yl)benzamide] |  | EC50 Btk activity values (Btk enzyme (His-Btk); bin bounds in μM): <1000 nM
COC/C=C/C(=O)N1CCCC[C@H]1c1nc(-c2ccc(C(=O)Nc3ccncn3)cc2)c2c(N)nccn12 [Example 86, (S,E)-4-(8-amino-3-(1-(4-methoxybut-2-enoyl)piperidin-2-yl)imidazo[1,5-a]pyrazin-1-yl)-N-(pyrimidin-4-yl)benzamide] |  | EC50 Btk activity values (Btk enzyme (His-Btk); bin bounds in μM): <1000 nM
CCCc1ccnc(NC(=O)c2ccc(-c3nc([C@@H]4CCCN4C(=O)/C=C/COC)n4ccnc(N)c34)c(C)c2)c1 [Example 87, 4-(8-amino-3-((S)-1-((E)-4-methoxybut-2-enoyl)pyrrolidin-2-yl)imidazo[1,5-a]pyrazin-1-yl)-3-methyl-N-(4-propylpyridin-2-yl)benzamide] |  | EC50 Btk activity values (Btk enzyme (His-Btk); bin bounds in μM): <1000 nM
COC/C=C/C(=O)N1CCCC[C@H]1c1nc(-c2ccc(C(=O)Nc3nccc(C)n3)cc2)c2c(N)nccn12 [Example 88, (S,E)-4-(8-amino-3-(1-(4-methoxybut-2-enoyl)piperidin-2-yl)imidazo[1,5-a]pyrazin-1-yl)-N-(4-methylpyrimidin-2-yl)benzamide] |  | EC50 Btk activity values (Btk enzyme (His-Btk); bin bounds in μM): <1000 nM
CC#CC(=O)N1CCCC[C@H]1c1nc(-c2ccc(C(=O)Nc3nccc(C)n3)cc2)c2c(N)nccn12 [Example 89, (S)-4-(8-amino-3-(1-but-2-ynoylpiperidin-2-yl)imidazo[1,5-a]pyrazin-1-yl)-N-(4-methylpyrimidin-2-yl)benzamide] | <100 | 
Nc1nccn2c([C@@H]3CCCCN3C(=O)c3ccnc(Cl)n3)nc(-c3ccc(C(=O)Nc4ncccn4)cc3)c12 [Example 90, (S)-4-(8-amino-3-(1-(2-chloropyrimidine-4-carbonyl)piperidin-2-yl)imidazo[1,5-a]pyrazin-1-yl)-N-(pyrimidin-2-yl)benzamide] |  | EC50 Btk activity values (Btk enzyme (His-Btk); bin bounds in μM): <1000 nM
C=C(C(=O)N1CCC[C@H]1c1nc(-c2ccc(C(=O)Nc3ccccn3)cc2)c2c(N)nccn12)C(F)(F)F [Example 92, (S)-4-(8-amino-3-(1-(2-(trifluoromethyl)acryloyl)pyrrolidin-2-yl)imidazo[1,5-a]pyrazin-1-yl)-N-(pyridin-2-yl)benzamide] |  | EC50 Btk activity values (Btk enzyme (His-Btk); bin bounds in μM): <1000 nM
N#CCN1CCC[C@H]1c1nc(-c2ccc(C(=O)Nc3ccccn3)cc2)c2c(N)nccn12 [Example 94, (S)-4-(8-amino-3-(1-(cyanomethyl)pyrrolidin-2-yl)imidazo[1,5-a]pyrazin-1-yl)-N-(pyridin-2-yl)benzamide] |  | EC50 Btk activity values (Btk enzyme (His-Btk); bin bounds in μM): <1000 nM
Nc1nccn2c([C@@H]3CCCN3C(=O)/C=C/c3ccccc3)nc(-c3ccc(C(=O)Nc4ccccn4)cc3)c12 [Example 104, (S,E)-4-(8-amino-3-(1-cinnamoylpyrrolidin-2-yl)imidazo[1,5-a]pyrazin-1-yl)-N-(pyridin-2-yl)benzamide] |  | EC50 Btk activity values (Btk enzyme (His-Btk); bin bounds in μM): <1000 nM; EC50 Lck activity values (Lck enzyme): <1 µM
C=CC(=O)N1CCC[C@H]1c1nc(-c2ccc(C(=O)Nc3cc(C#N)ccn3)cc2)c2c(N)nccn12 [Example 122, (S)-4-(3-(1-acryloylpyrrolidin-2-yl)-8-aminoimidazo[1,5-a]pyrazin-1-yl)-N-(4-cyanopyridin-2-yl)benzamide] |  | EC50 Lck activity values (Lck enzyme): <1 µM
CC#CC(=O)N1CCC[C@H]1c1nc(-c2ccc(C(=O)Nc3cc(-c4ccccc4)ccn3)cc2)c2c(N)nccn12 [Example 132, (S)-4-(8-amino-3-(1-but-2-ynoylpyrrolidin-2-yl)imidazo[1,5-a]pyrazin-1-yl)-N-(4-phenylpyridin-2-yl)benzamide] |  | EC50 Lck activity values (Lck enzyme): <1 µM

More lines, main results first:

EC50 Btk activity values (Btk enzyme (His-Btk); bin bounds in nM) [nM] | Structure (SMILES) | further results
<100 | COC/C=C/C(=O)NCc1nc(-c2ccc(C(=O)Nc3ccccn3)cc2)c2c(N)nccn12 [Example 95, (E)-4-(8-amino-3-((4-methoxybut-2-enamido)methyl)imidazo[1,5-a]pyrazin-1-yl)-N-(pyridin-2-yl)benzamide] | 
<100 | CC#CC(=O)N1CCC[C@H]1c1nc(-c2ccc(C(=O)Nc3cc(N4CCCC4)ccn3)cc2)c2c(N)nccn12 [Example 96, (S)-4-(8-amino-3-(1-but-2-ynoylpyrrolidin-2-yl)imidazo[1,5-a]pyrazin-1-yl)-N-(4-(pyrrolidin-1-yl)pyridin-2-yl)benzamide] | 
<100 | COC/C=C/C(=O)N1CCC[C@H]1c1nc(-c2ccc(C(=O)Nc3cc(C#N)ccn3)cc2)c2c(N)nccn12 [Example 98, (S,E)-4-(8-amino-3-(1-(4-methoxybut-2-enoyl)pyrrolidin-2-yl)imidazo[1,5-a]pyrazin-1-yl)-N-(4-cyanopyridin-2-yl)benzamide] | 
<100 | CC#CC(=O)N1CCC[C@H]1c1nc(-c2ccc(C(=O)Nc3ccccn3)c(OC)c2)c2c(N)nccn12 [Example 99, (S)-4-(8-amino-3-(1-but-2-ynoylpyrrolidin-2-yl)imidazo[1,5-a]pyrazin-1-yl)-2-methoxy-N-(pyridin-2-yl)benzamide] | 
<100 | COC/C=C/C(=O)N1CCC[C@H]1c1nc(-c2ccc(C(=O)Nc3ccccn3)c(OC)c2)c2c(N)nccn12 [Example 103, (S,E)-4-(8-amino-3-(1-(4-methoxybut-2-enoyl)pyrrolidin-2-yl)imidazo[1,5-a]pyrazin-1-yl)-2-methoxy-N-(pyridin-2-yl)benzamide] | 
<100 | C[C@H](NC(=O)c1ccnc(Cl)n1)c1nc(-c2ccc(C(=O)Nc3ccccn3)cc2)c2c(N)nccn12 [Example 105, (S)-N-(1-(8-amino-1-(4-(pyridin-2-ylcarbamoyl)phenyl)imidazo[1,5-a]pyrazin-3-yl)ethyl)-2-chloropyrimidine-4-carboxamide] | 
<100 | CC#CC(=O)N1CCC[C@H]1c1nc(-c2ccc(C(=O)Nc3cc(F)ccn3)cc2)c2c(N)nccn12 [Example 106, (S)-4-(8-amino-3-(1-but-2-ynoylpyrrolidin-2-yl)imidazo[1,5-a]pyrazin-1-yl)-N-(4-fluoropyridin-2-yl)benzamide] | 
<100 | CC#CC(=O)NCc1nc(-c2ccc(C(=O)Nc3ccccn3)cc2)c2c(N)nccn12 [Example 112, 4-(8-amino-3-(but-2-ynamidomethyl)imidazo[1,5-a]pyrazin-1-yl)-N-(pyridin-2-yl)benzamide] | 
<100 | CC#CC(=O)N(C)[C@@H](C)c1nc(-c2ccc(C(=O)Nc3cc(CCC)ccn3)cc2)c2c(N)nccn12 [Example 113, (S)-4-(8-amino-3-(1-(N-methylbut-2-ynamido)ethyl)imidazo[1,5-a]pyrazin-1-yl)-N-(4-propylpyridin-2-yl)benzamide] | 
<100 | CCCc1ccnc(NC(=O)c2ccc(-c3nc([C@@H]4CCCCN4C(=O)/C=C/COC)n4ccnc(N)c34)cc2F)c1 [Example 114, (S,E)-4-(8-amino-3-(1-(4-methoxybut-2-enoyl)piperidin-2-yl)imidazo[1,5-a]pyrazin-1-yl)-2-fluoro-N-(4-propylpyridin-2-yl)benzamide] | 
<100 | Nc1nccn2c([C@@H]3CCCN3C(=O)c3ccnc(Cl)n3)nc(-c3ccc(C(=O)Nc4cc(C(F)(F)F)ccn4)cc3)c12 [Example 119, (S)-4-(8-amino-3-(1-(2-chloropyrimidine-4-carbonyl)pyrrolidin-2-yl)imidazo[1,5-a]pyrazin-1-yl)-N-(4-(trifluoromethyl)pyridin-2-yl)benzamide] | 
